Test [1] deals with HIV protease (Human immunodeficiency virus type 1 group M subtype B, UniProt P04585). Nature of the test: biochemical.
Description: Enzymatic Assay for Determining the Inhibition Constant (Ki) of Synthetic Compounds Targeting the HIV Protease
This is a fluorometric assay based on the cleavage by protease of a substrate carrying a donor group (EDANS) and an acceptor group (DABCYL) on each side of the cleavage site, interacting together through fluorescence resonance energy transfer (FRET) as described by Matayoshi et al. (Science 247:954-954, 1990).
After calculation of Vo and Vi, the inhibition constant (Ki) of the compound is determined using the equation of Henderson: [formula]
where Vo=the enzyme's initial velocity
Vi=the enzyme velocity in the presence of the inhibitory compound,
[I]=inhibitor concentration, [S]=substrate concentration,
Km=Michaelis-Menten constant and Kiapp=apparent Ki
Graphs are traced and the Ki determined using GraphPad Prism software v.
In test [2] the test system is HIV-1 laboratory viral strain NL4.3 (wild type virus). Put plainly: Anti-viral assay in vitro (MTT, infected MT-4 cells). Type of test: cell-based. As to conditions: Human immunodeficiency virus 1, MT4, 144 h; MT-4 cells infected with NL4.3, six days, MTT assay; read-out: EC50. On the procedure:
Anti-viral and Cytotoxicity Assays In Vitro
To evaluate the EC50 of our compounds, various drug concentrations are incubated with the infected cell for six days and then the metabolic activity of the cells is monitored by the MTT assay. (See A. J. Japour et al, Antimicrobial Agents and Chemotherapy, 37, 1095-1101, 1993 and R. Pauwels et al. Journal of Virological Methods, 20, 309-321, 1988)
We use the laboratory viral strain NL4.3 as wild type virus and the cell line used is MT-4 which is a T-cell line highly sensitive to HIV-1. We also use some WT clinical strains. To address the resistance issue we assay the inhibitors with NL4.3 mutants which are designed to be resistant to specific commercially,available inhibitors
On the technique in general: Tetrazolium dyes change colour on reduction, which living cells bring about.

For orientation: Ki means the equilibrium dissociation constant of an inhibitor or competing ligand from its target. A word on the EC50: it is the concentration at which the effect is half-maximal.

Some results are limits rather than exact numbers.

The compound `COC(=O)N[C@@H](Cc1ccc2ccccc2c1)C(=O)NCCC[C@@H](CO)N(CC(C)C)S(=O)(=O)c1ccc(N)cc1` [Example 1, (1S,4S)-(1-{4-[(4-Amino-benzenesulfonyl)-isobutyl-amino]-5-hydroxy-pentylcarbamoyl}-2-naphthalen-2-yl-ethyl)-carbamic Acid Methyl Ester] showed a Ki in test [1] of 7.3 nM. Also, the EC50 in test [2] amounted to 1470 nM.
The matching figures for `COC(=O)N[C@@H](Cc1cccc2ccccc12)C(=O)NCCC[C@@H](CO)N(CC(C)C)S(=O)(=O)c1ccc(N)cc1` [Example 2, (1S,4S)-(1-{4-[(4-Amino-benzenesulfonyl)-isobutyl-amino]-5-hydroxy-pentylcarbamoyl}-2-naphthalen-1-yl-ethyl)-carbamic Acid Methyl Ester]: 2.8 nM and 674 nM.
Taken in the same sequence, the figures for `COC(=O)NC(Cc1ccccc1-c1ccccc1)C(=O)NCCCC(CO)N(CC(C)C)S(=O)(=O)c1ccc(N)cc1` [Example 3, (1R,S,4S)-(1-{4-[(4-Amino-benzenesulfonyl)-isobutyl-amino]-5-hydroxy-pentylcarbamoyl}-2-biphenyl-2-yl-ethyl)-carbamic Acid Methyl Ester] were 2.4 nM and 64 nM.
`CC(C)CN([C@H](CO)CCCNC(=O)[C@H](Cc1cccc2ccccc12)NC(=O)N1CCOCC1)S(=O)(=O)c1ccc(N)cc1` [Example 4, (1S,4S)-Morpholine-4-carboxylic Acid (1-{4-[(4-Amino-benzenesulfonyl)-isobutyl-amino]-5-hydroxy-pentylcarbamoyl}-2-naphthalen-1-yl-ethyl)-amide] showed a Ki in test [1] of 1.4 nM. For the same compound, the EC50 in test [2] stood at 728 nM.
For the compound `CC(C)CN([C@H](CO)CCCNC(=O)[C@@H](NC(=O)N1CCOCC1)C(c1ccccc1)c1ccccc1)S(=O)(=O)c1ccc(N)cc1` [Example 9, (1S,4S)-Morpholine-4-carboxylic Acid (1-{4-[(4-Amino-benzenesulfonyl)-isobutyl-amino]-5-hydroxy-pentylcarbamoyl}-2,2-diphenyl-ethyl)-amide], the Ki in test [1] came to 4.2 nM. Further, the EC50 in test [2] came to 1300 nM.
Compound `COC(=O)N[C@H](C(=O)NCCC[C@@H](CO)N(CC(C)C)S(=O)(=O)c1ccc(N)cc1)C(c1ccccc1)c1ccccc1` [Example 10, (1S,4S)-(1-{4-[(4-Amino-benzenesulfonyl)-isobutyl-amino]-5-hydroxy-pentylcarbamoyl}-2,2-diphenyl-ethyl)-carbamic Acid Methyl Ester] showed a Ki in test [1] of 5 nM. Moreover, the EC50 in test [2] is 514 nM.
With `COC(=O)C(=O)N[C@@H](Cc1cccc2ccccc12)C(=O)NCCC[C@@H](CO)N(CC(C)C)S(=O)(=O)c1ccc(N)cc1` [Example 11, (1S,4S)-N-(1-{4-[(4-Amino-benzenesulfonyl)-isobutyl-amino]-5-hydroxy-pentylcarbamoyl}-2-naphthalen-1-yl-ethyl)-oxalamic Acid Methyl Ester], the Ki in test [1] turned out to be 5 nM. In addition, the EC50 in test [2] was 64000 nM.
In the case of `CC(C)CN([C@H](CO)CCCNC(=O)[C@H](Cc1cccc2ccccc12)NC(=O)CC(F)(F)F)S(=O)(=O)c1ccc(N)cc1` [Example 12, (1S,4S)-N-(1-{4-[(4-Amino-benzenesulfonyl)-isobutyl-amino]-5-hydroxy-pentylcarbamoyl}-2-naphthalen-1-yl-ethyl)-3,3,3-trifluoro-propionamide], the EC50 in test [2] came to 747 nM.
Same read-out and setting: with `CC(C)CN([C@H](CO)CCCCNC(=O)[C@H](Cc1ccc2ccccc2c1)NC(=O)CC(F)(F)F)S(=O)(=O)c1ccc(N)cc1` [Example 61, (1S,5S)-N-(1-{5-[(4-Amino-benzenesulfonyl)-isobutyl-amino]-6-hydroxy-hexylcarbamoyl}-2-naphthalen-2-yl-ethyl)-3,3,3-trifluoro-propionamide] the figure was 161 nM; with `COC(=O)N[C@H](C(=O)NCCCC[C@@H](CO)N(CC(C)C)S(=O)(=O)c1ccc2c(c1)OCO2)C(c1ccccc1)c1ccccc1` [Example 67, (1S,5S)-(1-{5-[(Benzo[1,3]dioxole-5-sulfonyl)-isobutyl-amino]-6-hydroxy-hexylcarbamoyl}-2,2-diphenyl-ethyl)-carbamic Acid Methyl Ester], 146 nM.
In turn, `CC(C)CN([C@H](CO)CCCCNC(=O)[C@@H](NC(=O)c1ccccc1O)C(c1ccccc1)c1ccccc1)S(=O)(=O)c1ccc(N)cc1` [Example 104, (1S,5S)-N-(1-{5-[(4-Amino-benzenesulfonyl)-isobutyl-amino]-6-hydroxy-hexylcarbamoyl}-2,2-diphenyl-ethyl)-2-hydroxy-benzamide] returned a Ki in test [1] of less than 3.8 nM.
On the same count and under the same terms, the value for `CC(C)CN([C@H](CO)CCCCNC(=O)[C@@H](NC(=O)c1cccc(O)c1)C(c1ccccc1)c1ccccc1)S(=O)(=O)c1ccc(N)cc1` [Example 105, (1S,5S)-N-(1-{5-[(4-Amino-benzenesulfonyl)-isobutyl-amino]-6-hydroxy-hexylcarbamoyl}-2,2-diphenyl-ethyl)-3-hydroxy-benzamide] was less than 3.8 nM.
Same read-out and setting: the value for `COc1cc(C(=O)N[C@H](C(=O)NCCCC[C@@H](CO)N(CC(C)C)S(=O)(=O)c2ccc(N)cc2)C(c2ccccc2)c2ccccc2)ccc1O` [Example 106, (1S,5S)-N-(1-{5-[(4-Amino-benzenesulfonyl)-isobutyl-amino]-6-hydroxy-hexylcarbamoyl}-2,2-diphenyl-ethyl)-4-hydroxy-3-methoxy-benzamide] was less than 3.8 nM.
Same read-out and setting: the value for `CC(C)CN([C@H](CO)CCCCNC(=O)[C@@H](NC(=O)c1ccc([N+](=O)[O-])c(O)c1)C(c1ccccc1)c1ccccc1)S(=O)(=O)c1ccc(N)cc1` [Example 107, (1S,5S)-N-(1-{5-[(4-Amino-benzenesulfonyl)-isobutyl-amino]-6-hydroxy-hexylcarbamoyl}-2,2-diphenyl-ethyl)-3-hydroxy-4-nitro-benzamide] was less than 3.8 nM; that for `CC(C)CN([C@H](CO)CCCCNC(=O)[C@@H](NC(=O)c1ncccc1O)C(c1ccccc1)c1ccccc1)S(=O)(=O)c1ccc(N)cc1` [Example 108, (1S,5S)-3-Hydroxy-pyridine-2-carboxylic Acid-N-(1-{5-[(4-amino-benzenesulfonyl)-isobutyl-amino]-6-hydroxy-hexylcarbamoyl}-2,2-diphenyl-ethyl)-amide] was less than 3.8 nM.
With `CC(C)CN([C@H](CO)CCCCNC(=O)[C@@H](NC(=O)c1ccc(N)nc1)C(c1ccccc1)c1ccccc1)S(=O)(=O)c1ccc(N)cc1` [Example 109, (1S,5S)-6-Amino-N-(1-{5-[(4-amino-benzenesulfonyl)-isobutyl-amino]-6-hydroxy-hexylcarbamoyl}-2,2-diphenyl-ethyl)-nicotinamide], the Ki in test [1] is less than 3.8 nM.
On the same count and under the same terms, with `CC(C)CN([C@H](CO)CCCCNC(=O)[C@@H](NC(=O)c1ccc(O)nc1)C(c1ccccc1)c1ccccc1)S(=O)(=O)c1ccc(N)cc1` [Example 110, (1S,5S)-N-(1-{5-[(4-Amino-benzenesulfonyl)-isobutyl-amino]-6-hydroxy-hexylcarbamoyl}-2,2-diphenyl-ethyl)-6-hydroxy-nicotinamide] the figure was less than 3.8 nM; with `Cc1ncccc1C(=O)N[C@H](C(=O)NCCCC[C@@H](CO)N(CC(C)C)S(=O)(=O)c1ccc(N)cc1)C(c1ccccc1)c1ccccc1` [Example 111, (1S,5S)-N-(1-{5-[(4-Amino-benzenesulfonyl)-isobutyl-amino]-6-hydroxy-hexylcarbamoyl}-2,2-diphenyl-ethyl)-2-methyl-nicotinamide], less than 3.8 nM; with `Cc1ccc(C(=O)N[C@H](C(=O)NCCCC[C@@H](CO)N(CC(C)C)S(=O)(=O)c2ccc(N)cc2)C(c2ccccc2)c2ccccc2)cn1` [Example 112, (1S,5S)-N-(1-{5-[(4-Amino-benzenesulfonyl)-isobutyl-amino]-6-hydroxy-hexylcarbamoyl}-2,2-diphenyl-ethyl)-6-methyl-nicotinamide], less than 3.8 nM.
Same read-out and setting: the value for `CC(C)CN([C@H](CO)CCCCNC(=O)[C@@H](N)Cc1ccc2ccccc2c1)S(=O)(=O)c1ccc(N)c(F)c1` [Example 113, (2S,5S)-2-Amino-N-{5-[(4-amino-3-fluoro-benzenesulfonyl)-isobutyl-amino]-6-hydroxy-hexyl}-3-naphthalen-2-yl-propionamide] was less than 3.8 nM.
Same read-out and setting: with `CC(C)CN([C@H](CO)CCCCNC(=O)[C@H](Cc1ccc2ccccc2c1)NC(=O)c1cnc[nH]1)S(=O)(=O)c1ccc(F)c(N)c1` [Example 114, (1S,5S)-3H-Imidazole-4-carboxylic Acid (1-{5-[(3-Amino-4-fluoro-benzenesulfonyl)-isobutyl-amino]-6-hydroxy-hexylcarbamoyl}-2-naphthalen-2-yl-ethyl)-amide] the figure was less than 3.8 nM.
Compound `CC(C)CN([C@H](CO)CCCCNC(=O)[C@H](Cc1ccc2ccccc2c1)NC(=O)N1CCCC1)S(=O)(=O)c1ccc(F)c(N)c1` [Example 115, (1S,5S)Pyrrolidine-1-carboxylic Acid (1-{5-[(3-Amino-4-fluoro-benzenesulfonyl)-isobutyl-amino]-6-hydroxy-hexylcarbamoyl}-2-naphthalen-2-yl-ethyl)-amide] gave a Ki in test [1] of less than 3.8 nM.
With `COC(=O)N[C@@H](Cc1ccc2ccccc2c1)C(=O)NCCCC[C@@H](CO)N(CC(C)C)S(=O)(=O)c1ccc(N)c(F)c1` [Example 116, (1S,5S) (1-{5-[(4-Amino-3-fluoro-benzenesulfonyl)-isobutyl-amino]-6-hydroxy-hexylcarbamoyl}-2-naphthalen-2-yl-ethyl)-carbamic Acid Methyl Ester], in test [1], the Ki is less than 3.8 nM.

The values above are taken from patent publication US6632816B1, “Aromatic derivatives as HIV aspartyl protease inhibitors” (Pharmacor Inc., priority 2002, dated 2003).
